According to PubChem BioAssay AID623906 (Vanderbilt Specialized Chemistry Center, 2012):

Target: Metabotropic glutamate receptor 4 (Rattus norvegicus) (UniProt P31423)
Test: PubChem AID 623906
Conditions: rat mGlu4 cells, thallium flux, glutamate CRC fold shift, at 10 µM, stronger effect = higher value

Sequence of Metabotropic glutamate receptor 4 (Rattus norvegicus) (P31423 whole entry, looked up): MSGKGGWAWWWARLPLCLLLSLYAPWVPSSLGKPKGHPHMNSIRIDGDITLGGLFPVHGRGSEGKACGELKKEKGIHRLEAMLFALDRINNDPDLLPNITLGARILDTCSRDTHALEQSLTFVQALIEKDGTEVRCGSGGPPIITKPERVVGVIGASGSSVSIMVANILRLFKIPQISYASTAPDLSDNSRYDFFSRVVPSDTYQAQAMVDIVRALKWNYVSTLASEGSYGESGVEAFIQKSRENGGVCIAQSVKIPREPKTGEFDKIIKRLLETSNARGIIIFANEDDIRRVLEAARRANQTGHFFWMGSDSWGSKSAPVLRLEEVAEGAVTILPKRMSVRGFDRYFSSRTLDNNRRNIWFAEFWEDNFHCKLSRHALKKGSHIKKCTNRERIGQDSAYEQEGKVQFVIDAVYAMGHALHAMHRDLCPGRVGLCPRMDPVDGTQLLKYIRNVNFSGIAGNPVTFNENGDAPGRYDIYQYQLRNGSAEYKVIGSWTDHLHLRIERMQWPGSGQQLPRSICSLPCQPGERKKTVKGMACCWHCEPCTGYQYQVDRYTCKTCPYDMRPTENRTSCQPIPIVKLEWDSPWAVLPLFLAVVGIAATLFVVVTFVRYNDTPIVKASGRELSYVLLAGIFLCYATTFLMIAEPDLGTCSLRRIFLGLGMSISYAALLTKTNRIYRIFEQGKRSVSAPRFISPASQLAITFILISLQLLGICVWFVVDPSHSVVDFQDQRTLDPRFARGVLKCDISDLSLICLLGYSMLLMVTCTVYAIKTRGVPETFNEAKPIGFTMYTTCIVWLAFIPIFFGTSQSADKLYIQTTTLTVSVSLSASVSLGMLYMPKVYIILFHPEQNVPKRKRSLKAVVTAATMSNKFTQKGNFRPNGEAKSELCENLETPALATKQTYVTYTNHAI

fold shift: 16.5 | glutamate max response (glutamate max with compound): 96.9%
Structure (SMILES): O=C(Nc1cccc(Cl)c1)c1ccccn1
